According to publication PMC4822341 (Cell Discovery, 2015):

Experiments:
GR [1] = biological target: T1, GR (Homo sapiens, UniProt P04150); experiment: MMTV-Luc induction reporter assay in AD293 cells; format: cell-based; settings: 16 h
T1 construct: expressed in transfected cells; host or cells: AD293
T1 sequence (P04150 1-777): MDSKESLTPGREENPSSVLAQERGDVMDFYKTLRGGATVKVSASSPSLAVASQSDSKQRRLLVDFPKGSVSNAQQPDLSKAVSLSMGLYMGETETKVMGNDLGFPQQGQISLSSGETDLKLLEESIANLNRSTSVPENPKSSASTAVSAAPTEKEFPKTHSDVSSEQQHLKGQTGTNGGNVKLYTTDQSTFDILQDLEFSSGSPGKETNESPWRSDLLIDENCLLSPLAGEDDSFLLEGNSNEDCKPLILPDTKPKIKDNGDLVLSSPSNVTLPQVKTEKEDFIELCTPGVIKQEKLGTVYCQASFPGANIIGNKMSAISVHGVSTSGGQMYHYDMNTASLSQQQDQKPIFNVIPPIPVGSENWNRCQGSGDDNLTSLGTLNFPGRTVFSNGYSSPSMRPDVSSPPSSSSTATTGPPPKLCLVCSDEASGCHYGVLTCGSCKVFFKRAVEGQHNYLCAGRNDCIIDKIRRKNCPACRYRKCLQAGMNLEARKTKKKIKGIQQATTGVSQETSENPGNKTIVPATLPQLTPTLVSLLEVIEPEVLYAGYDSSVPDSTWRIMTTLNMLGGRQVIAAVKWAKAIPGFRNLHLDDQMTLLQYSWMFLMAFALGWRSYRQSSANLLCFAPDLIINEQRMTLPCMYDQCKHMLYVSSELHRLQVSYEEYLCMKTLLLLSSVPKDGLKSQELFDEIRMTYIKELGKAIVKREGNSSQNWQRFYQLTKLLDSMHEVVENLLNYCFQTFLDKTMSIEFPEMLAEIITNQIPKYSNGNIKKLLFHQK
Protocol: (§1) Similar to previous reports, for induction 100 ng pHHLuc (MMTV-Luc) plasmid, 0.1 ng pRShGR together with 5 ng phRGtkRenilla were transfected by X-tremeGENE 9 (Roche) into AD293 cells per well in 24-well plate. For transrepression, 10 ng AP-1-Luc or 10ng pNF-κB-luc, 100 ng pRShGR and 5 ng phRGtkRenilla were transfected into AD293 cells per well. We used the same transfection protocol for the MR and PR assays, except of the use of 0.1 ng MR or PR plasmid to substitute GR. One day after transfection, for induction, cells were directly treated by steroids for 16 h; for repression, cells were treated with either PMA at 0.6 ng ml^–1 (for AP-1 reporter) or TNFα at 2 ng ml^–1 (for NF-κB reporter), together with various steroids. Cells were collected by addition of 1× Passive Lysis Buffer (Promega, Madison, WI, USA), and luciferase activity was assayed by the Dual-Glo Luciferase system (Promega). Data were plotted as firefly luciferase activity normalized to Renilla luciferase activity in Relative Luciferase Units.

GR [2] = biological target: T1, GR; experiment: NF-κB-Luc repression reporter assay in AD293 cells; format: cell-based; settings: TNFα 2 ng ml^-1
Protocol: as §1
Error bars indicate SD, n=3.

RAW264.7 cells = experiment: Gene expression (microarray and quantitative PCR) in LPS-stimulated RAW264.7 cells; format: cell-based, mouse; settings: RAW264.7, LPS, steroid 100 nM
Protocol: Mouse macrophage RAW264.7 cells were grown in 6-well plates to reach 80% confluence. The cells were pretreated with different steroids at 100 nM 1 h before overnight induction of inflammation by 1 μg ml^–1 LPS. Total RNA was isolated using a Qiagen mini RNA extraction kit (Valencia, CA, USA). Complementary DNA was synthesized from total RNA with an Invitrogen Superscript cDNA synthesis kit (Carlsbad, CA, USA). Target genes were quantified with a Power SYBR Green Real-Time PCR kit (Carlsbad, CA, USA) (ABI) in a StepOnePlus real-time PCR instrument (Applied Biosystems, Carlsbad, CA, USA). In every case, GAPDH (glyceraldehyde-3-phosphate dehydrogenase) was used as an internal control and data were analyzed by the ΔΔCt method. The specificity of target primers was tested both in a dissociation (melting) curve (Supplementary Figure S4) and against a water control. Primer sequence information is included in Supplementary Figure S4.
RAW264.7 cells were treated with designated steroids at 100 nM 1 h before overnight LPS stimulation of inflammation. Each treatment was duplicated. The following day, RNA samples were isolated using a Qiagen mini RNA extraction kit and applied to the Agilent Whole Mouse Genome 8x60K gene expression platform. Data were analyzed by the limma package in R program. Heat maps were generated by the HeatMap 2 package. Pathway analysis was done via DAVID Bioinformatics Resources 6.7 (NIAID) and Venn diagrams were generated by BioVenn.

GR [3] = biological target: T1, GR; experiment: In vitro H3-Dex competition GR ligand-binding assay; settings: H3-DEX 15 nM, GR cytosol
Text: The in vitro GR binding assay is similar to the one described previously. […] Data were plotted as a standard competition curve by GraphPad Prism 5.

[4] = test system: IL-6 release from A549 cells; experiment: Cytokine inhibition assay, IL-6 release from A549 cells; format: cell-based; settings: Homo sapiens, TNFα 2 ng ml^-1, read-out: IC50 (suppression of IL-6 release)
Protocol: A549 cells into 24-well plates were split at 40 000 cells/well. After 1 day growth, cells were treated with various steroids 1 h before overnight induction of inflammation by 2 ng ml^–1 TNFα according to literature. Sixteen hours after treatment, cell culture supernatants were subjected to anti-IL-6 Elisa (R&D Quantikine Elisa Human IL-6 Kit) according to the manual.

GR [5] = biological target: T1, GR; experiment: AP-1-Luc repression reporter assay in AD293 cells; format: cell-based; settings: AP-1 reporter, PMA 0.6 ng ml^-1
Protocol: as §1

**Q.** How did the EC50 (GR [1]) turn out when `CON(C)C(=O)C1(OC(=O)c2ccco2)C(C)CC2C3CC(F)C4=Cc5c(cnn5-c5ccccc5)CC4(C)C3(F)C(O)CC21C` (stereo not shown) [VSGC12] was run?
**A.** 0.51 nM

**Q.** And the IC50 (GR [2])?
**A.** 0.08 nM

**Q.** What about the “inhibition activity of pro-inflammatory cytokines (microarray, normalized to DEX)” value (RAW264.7 cells) of the same molecule?
**A.** much stronger inhibition activity than DEX

**Q.** What about the “repression activity on pro-inflammatory cytokines by quantitative PCR” value (RAW264.7 cells) of the same molecule?
**A.** much higher repression activity on IL-1β, IL-6 and IL-33 than FF and DEX

**Q.** And the IC50 (GR [3])?
**A.** 6.1 nM

**Q.** What about the IC50 [4] of the same molecule?
**A.** 0.05 nM

**Q.** What about the IC50 (GR [5]) of the same molecule?
**A.** 0.02 nM
